Measurements: patent US20250340537A1, “PHARMACEUTICALLY ACTIVE COMPOUNDS, COMPOSITIONS, AND METHODS FOR MODULATING PENDRIN” (ARBORMED Co., Ltd., priority 2022, published 2025)

What follows are molecules tested against T1, H723R-pendrin (Homo sapiens, UniProt O43511, H723R) (assay: YFP fluorescence quenching assay (Cl−/I− exchange activity of pendrin)). Settings: PANC-1 cells stably expressing human H723R-pendrin and YFP-F46L/H148Q/I152L; compound incubation 20-24 hours; iodide influx.
T1 construct: expressed in transfected cells; host or cells: PANC-1
T1 sequence (O43511 1-780 H723R): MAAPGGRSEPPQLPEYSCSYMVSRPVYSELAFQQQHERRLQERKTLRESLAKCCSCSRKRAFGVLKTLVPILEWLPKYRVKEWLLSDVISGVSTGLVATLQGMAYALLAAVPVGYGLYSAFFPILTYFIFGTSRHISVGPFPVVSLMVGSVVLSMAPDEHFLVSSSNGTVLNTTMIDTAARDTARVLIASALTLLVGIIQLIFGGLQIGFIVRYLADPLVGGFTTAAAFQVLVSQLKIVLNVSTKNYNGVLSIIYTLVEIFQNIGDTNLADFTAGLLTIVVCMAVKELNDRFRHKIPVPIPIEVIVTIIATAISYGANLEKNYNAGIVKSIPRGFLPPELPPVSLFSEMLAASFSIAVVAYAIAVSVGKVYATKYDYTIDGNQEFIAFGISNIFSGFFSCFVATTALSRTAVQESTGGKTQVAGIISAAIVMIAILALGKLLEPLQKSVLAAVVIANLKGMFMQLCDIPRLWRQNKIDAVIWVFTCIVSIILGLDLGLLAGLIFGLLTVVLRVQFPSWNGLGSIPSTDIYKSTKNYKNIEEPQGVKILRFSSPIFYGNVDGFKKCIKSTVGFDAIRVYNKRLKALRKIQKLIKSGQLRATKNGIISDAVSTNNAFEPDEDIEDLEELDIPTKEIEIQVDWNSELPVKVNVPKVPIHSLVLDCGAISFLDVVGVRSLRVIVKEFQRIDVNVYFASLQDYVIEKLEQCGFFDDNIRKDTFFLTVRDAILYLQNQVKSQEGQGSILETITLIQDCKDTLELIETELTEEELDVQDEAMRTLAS
Assay type: cell-based
Outline: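 PANC-1 cells stably co-expressing human H723R-pendrin and YFP-F46L/H148Q/I152L, treated with compounds for 20-24 h at 37 °C. Initial iodide influx rate after NaI-substituted HEPES buffer (pH 7.4) addition, taken from the initial slope of YFP fluorescence quench by nonlinear regression. EC50 reported in bins.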

EC50 | SMILES
< 5 µM | NC1=C(c2cncc(-c3ccc(O)c(O)c3)n2)C(=O)CN1c1ccccc1Cl [Compound 9]
< 5 µM | NC1=C(c2cncc(-c3ccc(O)c(O)c3)n2)C(=O)CN1CC1CCCC1 [Compound 18]
< 5 µM | COc1cc(-c2nccc(C3=C(N)N(CC4CCCC4)CC3=O)n2)ccc1O [Compound 105]
